# Measurements reported in publication PMC5433425 (PeerJ, 2017).
# Where “and” joins values, the source holds several entries; their conditions need not be identical. Equal entries are not always repeated. Peptide text beside a SMILES is read from it. * marks the point of attachment. βNA = c1ccc2cc(N*)ccc2c1
# What was measured:
# [1] = Cytotoxicity, AlamarBlue method; type: cell-based, human; conditions: human, human monocyte-derived macrophages, three days of exposure, AlamarBlue
# Experimental: (§1) The blood was collected from healthy donors and the peripheral blood mononuclear cells were isolated by Ficoll-Paque Plus (GE Healthcare, Freiburg, Germany) density gradient centrifugation as previously described ([Machado et al., 2016]). […] Fresh medium was added at day 4 post isolation. The effect of the compounds on human monocyte-derived macrophages was evaluated using the AlamarBlue method (Molecular Probes, Life Technologies) ([O’Brien et al., 2000]), and by measuring the release of the lactate dehydrogenase (LDH) into the culture supernatants using the Pierce LDH Cytotoxicity Assay (ThermoFisher Scientific, Waltham, MA, USA) ([Chan, Moriwaki & Rosa, 2013]) according to the manufacturer’s instructions. Briefly, 5 × 10^4 cells were seeded in 96-well microplates treated with the compounds, and incubated at 37 °C with 5% CO2. After 72 h of treatment, the cell viability was assessed. For the AlamarBlue method, the dye was added to each well to a final concentration of 10% and incubated overnight at 37 °C and 5% CO2. The fluorescence was measured with a 540/35 excitation filter and a 590/20 emission filter in a Synergy HT multi-mode microplate reader. The release of LDH from damaged cells into culture supernatants, as an indicator of cytotoxicity, was measured in serum-free medium. Here the amount of enzyme activity correlates to the number of damaged cells. The specific lysis was calculated as follows: (treated cells—spontaneous LDH release)/ (maximum LDH release—spontaneous LDH release) ×100.
# [2] = system: human monocyte-derived macrophages; experiment: Cytotoxicity, AlamarBlue method; type: cell-based; conditions: for AlamarBlue fluorescence 530/25,590/35 (raw well reading): 72 h, listed as PAN
# Experimental: as §1
# [3] = system: human monocyte-derived macrophages; experiment: Cytotoxicity, LDH release; type: cell-based; conditions: raw well reading, listed as PAN
# Experimental: as §1
# [4] = concentration 10 (unit not given)
# [5] = concentration 20 (unit not given)
# [6] = concentration 40 (unit not given)
# [7] = concentration 80 (unit not given)
# [8] = concentration 160 (unit not given)
# [9] = concentration 320 (unit not given)
# [10] = concentration 640 (unit not given)
# [11] = concentration 1280 (unit not given)
# [12] = concentration 2560 (unit not given)
structure (smiles),measurement,setting,value
N=C(N)NCCC[C@H](NC(=O)[C@@H](N)Cc1ccccc1)C(=O)Nc1ccc2ccccc2c1 [PAβN] (H-Phe-Arg-βNA),CC50 at 3 days,[1]; read-out: CC50,1270 µM
same,CC90 at 3 days,[1]; read-out: CC90,3600 µM
same,"AlamarBlue fluorescence 530/25,590/35 (raw well reading)",[2]; 10 uM,5144 and 4515 and 5435
same,"AlamarBlue fluorescence 530/25,590/35 (raw well reading)",[2]; 20 uM,4321 and 4369 and 4263
same,"AlamarBlue fluorescence 530/25,590/35 (raw well reading)",[2]; 40 uM,4438 and 4039 and 4264
same,"AlamarBlue fluorescence 530/25,590/35 (raw well reading)",[2]; 80 uM,3781 and 3772 and 3994
same,"AlamarBlue fluorescence 530/25,590/35 (raw well reading)",[2]; 160 uM,3584 and 4033 and 3977
same,"AlamarBlue fluorescence 530/25,590/35 (raw well reading)",[2]; 320 uM,3356 and 3644 and 3382
same,"AlamarBlue fluorescence 530/25,590/35 (raw well reading)",[2]; 640 uM,3650 and 3381 and 3133
same,"AlamarBlue fluorescence 530/25,590/35 (raw well reading)",[2]; 1280 uM,2305 and 2619 and 2474
same,CC10,"[2]; three days of exposure, AlamarBlue",447.71 µM
same,Pierce LDH absorbance 490,[3]; [4],0.218 and 0.187 and 0.203
same,Pierce LDH absorbance 630,[3]; [4],0.102 and 0.108 and 0.118
same,Pierce LDH absorbance 490,[3]; [5],0.185 and 0.182
same,Pierce LDH absorbance 630,[3]; [5],0.094 and 0.098 and 0.113
same,Pierce LDH absorbance 490,[3]; [6],0.213 and 0.202 and 0.198
same,Pierce LDH absorbance 630,[3]; [6],0.106 and 0.115 and 0.108
same,Pierce LDH absorbance 490,[3]; [7],0.221 and 0.196 and 0.201
same,Pierce LDH absorbance 630,[3]; [7],0.11 and 0.102 and 0.112
same,Pierce LDH absorbance 490,[3]; [8],0.25 and 0.23 and 0.207
same,Pierce LDH absorbance 630,[3]; [8],0.098 and 0.096 and 0.105
same,Pierce LDH absorbance 490,[3]; [9],0.226 and 0.222 and 0.196
same,Pierce LDH absorbance 630,[3]; [9],0.099 and 0.109 and 0.1
same,Pierce LDH absorbance 490,[3]; [10],0.201 and 0.208 and 0.215
same,Pierce LDH absorbance 630,[3]; [10],0.096 and 0.11 and 0.112
same,Pierce LDH absorbance 490,[3]; [11],0.434 and 0.517 and 0.508
same,Pierce LDH absorbance 630,[3]; [11],0.175 and 0.213 and 0.218
same,Pierce LDH absorbance 490,[3]; [12],0.612 and 0.538 and 0.513
same,Pierce LDH absorbance 630,[3]; [12],0.334 and 0.228 and 0.206
